This experiment has as its system P388 murine leukemia cell line. As to the kind of experiment: P388 cytotoxicity (ATP-Lite, 72 hours). In kind it is cell-based. The following applies: Mus musculus, P388, 72 hours. How it is done:
A P388 murine leukemia cell line was obtained from NCI, Frederick, Md. P388 cells were cultured in RPMI-1640 supplemented with 10% fetal bovine serum, 2 mM Glutamax, 1 mM sodium pyruvate, 0.1 mM non-essential amino acids and 10 mM HEPES. Cells were grown at 37° C. in a humidified 5% CO2 atmosphere. Exponentially growing P388 cells were plated at 5,000 cells/well in a 96-well flat-bottomed microtiter plate (Corning, Costar #3595). […] Cellular viability was determined 72 hours later by measuring intracellular ATP with ATP-Lite assay system. The effect of compounds on cell viability was calculated by comparing the ATP levels of cells exposed to test compound with those of cells exposed to DMSO. […] Data was analyzed by Prism software (GraphPad; San Diego, Calif.) by fitting it to a sigmoidal dose response curve.
As usually defined, the IC50 is the concentration needed to halve the response being measured. A lower IC50 goes with greater potency in that assay. As for `COC(=O)COc1ccc(N(C)c2nc(C)nc3ccccc23)cc1` [Example 143, {4-[Methyl-(2-methyl-quinazolin-4-yl)-amino]phenoxy}-acetic acid methyl ester], the IC50 was found to be 2200 nM.

Regarding `Cc1nc(N(C)c2ccc(OCC(=O)O)cc2)c2ccccc2n1` [Example 144, {4-[Methyl-(2-methyl-quinazolin-4-yl)-amino]phenoxy}-acetic acid], the IC50 stood at 1700 nM.

On to `COc1ccc(N(C)c2nc(NCCN)nc3ccccc23)cc1` [Example 145, N^2-(2-Amino-ethyl)-N^4-(4-methoxy-phenyl)-N^4-methyl-quinazoline-2,4-diamine], for which the IC50 came to 38 nM.

The compound `COc1ccc(N(C)c2nc(OC(C)C)nc3ccccc23)cc1` [Example 156, (2-Isopropoxy-quinazolin-4-yl)-(4-methoxy-phenyl)-methyl-amine] returned a half-inhibitory concentration (IC50) of 6 nM.

`CNc1nc(N(C)c2ccc(OC)c(OC)c2)c2ccccc2n1` [Example 167, N^4-(3,4-Dimethoxy-phenyl)-N^2,N^4-dimethyl-quinazoline-2,4-diamine] displayed an IC50 of 15 nM.

The compound `COc1ccc(N(C)c2nc(N(C)C)nc3ccccc23)cc1OC` [Example 168, N^4-(3,4-Dimethoxy-phenyl)-N^2,N^2,N^4-trimethyl-quinazoline-2,4-diamine] returned an IC50 of 45 nM.

As to `CONc1nc(N(C)c2ccc(OC)cc2)c2ccccc2n1` [Example 172, N-{4-[(4-Methoxy-phenyl)-methyl-amino]-quinazolin-2-yl}-O-methyl-hydroxylamine], half-maximal inhibition (IC50) was put at 2 nM.

`COc1ccc(N(C)c2nc(N(C)CCO)nc3ccccc23)cc1` [Example 174, 2-({4-[(4-Methoxy-phenyl)-methyl-amino]-quinazolin-2-yl}-methyl-amino)-ethanol] had an IC50 of 22 nM.

With `COc1ccc(N(C)c2nc(NCCN)nc3ccc(OC)cc23)cc1` [Example 175, N^2-(2-Amino-ethyl)-6-methoxy-N^4-(4-methoxy-phenyl)-N^4-methyl-quinazoline-2,4-diamine], 5000 nM corresponded to half-maximal inhibition (IC50).

Consider `COc1ccc(N(C)c2nc(C)nc3sccc23)cc1` [Example 176, (4-Methoxy-phenyl)-methyl-(2-methyl-thieno[2,3-d]pyrimidin-4-yl)-amine], for which it took 3 nM to reach half-maximal inhibition (IC50).

For `COc1ccccc1CN(C)c1nc(Cl)nc2ccccc12` [Example 177, (2-Chloro-quinazolin-4-yl)-(2-methoxy-benzyl)-methyl-amine], the midpoint of inhibition, the IC50, lay at 970 nM.

Regarding `COc1ccc(N(C)c2nc(NCCCl)nc3ccccc23)cc1` [Example 178, N^2-(2-Chloro-ethyl)-N^4-(4-methoxy-phenyl)-N^4-methyl-quinazoline-2,4-diamine], the IC50 worked out at 18 nM.

As for `COc1cccc(CN(C)c2nc(Cl)nc3ccccc23)c1` [Example 179, (2-Chloro-quinazolin-4-yl)-(3-methoxy-benzyl)-methyl-amine], half-maximal inhibition (IC50) was put at 1400 nM.

In turn, `COc1ccc(N(C)c2nc(NCCCO)nc3ccccc23)cc1` [Example 180, 3-{4-[(4-Methoxy-phenyl)-methyl-amino]-quinazolin-2-ylamino}-propan-1-ol] yielded an IC50 of 5 nM.

With `COc1ccc(N(C)c2nc(NCCCCO)nc3ccccc23)cc1` [Example 181, 4-{4-[(4-Methoxy-phenyl)-methyl-amino]-quinazolin-2-ylamino}-butan-1-ol], the half-inhibitory concentration (IC50) was found to be 13 nM.

On to `CCOc1nc(N(C)c2ccc(OC)cc2)c2ccccc2n1` [Example 182, (2-Ethoxy-quinazolin-4-yl)-(4-methoxy-phenyl)-methyl-amine], for which the IC50 was 2300 nM.

Turning to `COc1ccc(N(C)c2nc(N(C)CCCN(C)C)nc3ccccc23)cc1` [Example 183, N^2-(3-Dimethylamino-propyl)-N^4-(4-methoxy-phenyl)-N^2,N^4-dimethyl-quinazoline-2,4-diamine], the IC50 was determined as 490 nM.

`COc1ccc(N(C)c2nc(NCCCCN)nc3ccccc23)cc1` [Example 184, N^2-(4-Amino-butyl)-N^4-(4-methoxy-phenyl)-N^4-methyl-quinazoline-2,4-diamine] displayed a concentration for half-maximal inhibition (IC50) of 500 nM.

Turning to `COc1ccc(N(C)c2nc(C)nc3ccsc23)cc1` [Example 185, (4-Methoxy-phenyl)-methyl-(2-methyl-thieno[3,2-d]pyrimidin-4-yl)-amine], 7 nM corresponded to half-maximal inhibition (IC50).

The compound `COc1ccc(N(C)c2nc(NCCO)nc3ccc([N+](=O)[O-])cc23)cc1` [Example 186, 2-{4-[(4-Methoxy-phenyl)-methyl-amino]-6-nitro-quinazolin-2-ylamino}-ethanol] displayed an IC50 of 1800 nM.

Consider `COC(=O)CN(C)c1nc(N(C)c2ccc(OC)cc2)c2ccccc2n1` [Example 187, ({4-[(4-Methoxy-phenyl)-methyl-amino]-quinazolin-2-yl}-methyl-amino)-acetic acid methyl ester], for which the half-inhibitory concentration (IC50) was 110 nM.

With `COc1ccc(N(C)c2nc(C)nc3c2CCCC3)cc1` [Example 188, (4-Methoxy-phenyl)-methyl-(2-methyl-5,6,7,8-tetrahydro-quinazolin-4-yl)-amine], 2 nM corresponded to half-maximal inhibition (IC50).

As for `COc1ccc(N(C)c2nc(NCCO)nc3ccc(N)cc23)cc1` [Example 189, 2-{6-Amino-4-[(4-methoxy-phenyl)-methyl-amino]-quinazolin-2-ylamino}-ethanol], the IC50 was 460 nM.

The compound `CONc1nc2c(c(N(C)c3ccc(OC)cc3)n1)CCCC2` [Example 190, N-{4-[(4-Methoxy-phenyl)-methyl-amino]-5,6,7,8-tetrahydro-quinazolin-2-yl}-O-methyl-hydroxylamine] showed an IC50 of 6 nM.

For the compound `CCOC(=O)CNc1nc2c(c(N(C)c3ccc(OC)cc3)n1)CCCC2` [Example 191, {4-[(4-Methoxy-phenyl)-methyl-amino]-5,6,7,8-tetrahydro-quinazolin-2-ylamino}-acetic acid ethyl ester], the IC50 is 470 nM.

In turn, `CNc1nc2c(c(N(C)c3ccc(OC)cc3)n1)CCCC2` [Example 192, N^4-(4-Methoxy-phenyl)-N^2,N^4-dimethyl-5,6,7,8-tetrahydro-quinazoline-2,4-diamine] gave an IC50 of 19 nM.

In turn, `COc1ccc(N(C)c2nc(NCCO)nc3c2CCCC3)cc1` [Example 194, 2-{4-[(4-Methoxy-phenyl)-methyl-amino]-5,6,7,8-tetrahydro-quinazolin-2-ylamino}-ethanol] yielded an IC50 of 20 nM.

Turning to `COc1ccc(N(C)c2nncc3ccc(F)cc23)cc1` [Example 195, (7-Fluoro-phthalazin-1-yl)-(4-methoxy-phenyl)-methyl-amine], half-maximal inhibition (IC50) required 1500 nM.

On to `COc1ccc(N(C)c2nncc3cc(F)ccc23)cc1` [Example 196, (6-Fluoro-phthalazin-1-yl)-(4-methoxy-phenyl)-methyl-amine], for which 330 nM corresponded to half-maximal inhibition (IC50).

For the compound `CONc1nc2c(c(N(C)c3ccc(OC)cc3)n1)CCC2` [Example 197, N-{4-[(4-Methoxy-phenyl)-methyl-amino]-6,7-dihydro-5H-cyclopentapyrimidin-2-yl}-O-methyl-hydroxylamine], the 50% inhibitory concentration (IC50) was 8 nM.

With `COc1ccc(N(C)c2nc(OC(C)C)nc3cccc(F)c23)cc1` [Example 198, (5-Fluoro-2-isopropoxy-quinazolin-4-yl)-(4-methoxy-phenyl)-methyl-amine], the IC50 amounted to 3 nM.

Take `COc1ccc(N(C)c2nc(C(F)(F)F)nc3ccccc23)cc1` [Example 199, (4-Methoxy-phenyl)-methyl-(2-trifluoromethyl-quinazolin-4-yl)-amine]: half-maximal inhibition (IC50) required 3 nM.

As for `CNc1nc2c(c(N(C)c3ccc(OC)cc3)n1)CCC2` [Example 200, N^4-(4-Methoxy-phenyl)-N^2,N^4-dimethyl-6,7-dihydro-5H-cyclopentapyrimidine-2,4-diamine], inhibition was half-maximal at 7 nM (IC50).

For the compound `CNc1nc2c(c(N(C)c3ccc(OC)cc3)n1)CCCCC2` [Example 201, N4-(4-Methoxy-phenyl)-N2,N4-dimethyl-6,7,8,9-tetrahydro-5H-cycloheptapyrimidine-2,4-diamine], the IC50 is 76 nM.

Regarding `CCOC(=O)CNc1nc2c(c(N(C)c3ccc(OC)cc3)n1)CCC2` [Example 202, {4-[(4-Methoxy-phenyl)-methyl-amino]-6,7-dihydro-5H-cyclopentapyrimidin-2-ylamino}-acetic acid ethyl ester], the IC50 is 300 nM.

On to `COc1ccc(N(C)c2nc(CNC(C)=O)nc3ccccc23)cc1` [Example 203, N-{4-[(4-Methoxy-phenyl)-methyl-amino]-quinazolin-2-ylmethyl}-acetamide], for which the IC50 came out at 19 nM.

`Cc1nc(N(C)c2ccc(N(C)C(=O)OC(C)(C)C)cc2)c2ccccc2n1` [Example 204, Methyl-{4-[methyl-(2-methyl-quinazolin-4-yl)-amino]-phenyl}-carbamic acid tert-butyl ester] had an IC50 of 460 nM.

Compound `COc1ccc(N(C)c2nc(CN)nc3ccc(F)cc23)cc1` [Example 205, (2-Aminomethyl-6-fluoro-quinazolin-4-yl)-(4-methoxy-phenyl)-methyl-amine] returned an IC50 of 19 nM.

`COc1ccc(N(C)c2nc(CC#N)nc3ccccc23)cc1` [Example 206, {4-[(4-Methoxy-phenyl)-methyl-amino]-quinazolin-2-yl}-acetonitrile] gave an IC50 of 2 nM.

`CCOc1ccc(N(C)c2nc(C)nc3ccc([N+](=O)[O-])cc23)cc1` [Example 207, (4-Ethoxy-phenyl)-methyl-(2-methyl-6-nitro-quinazolin-4-yl)-amine] showed an IC50 of 17 nM.

As for `COc1ccc(N(C)c2nc(CCl)nc3ccc(Br)cc23)cc1` [Example 208, (6-Bromo-2-chloromethyl-quinazolin-4-yl)-(4-methoxy-phenyl)-methyl-amine], half-maximal inhibition (IC50) was put at 27 nM.

The record behind these values is patent US20130029942A1, “COMPOUNDS AND THERAPEUTICAL USES THEREOF” (Myrexis, Inc., priority 2003, published 2013).
